PubChem BioAssay (NCI)
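Results reflect a 48-hour exposure of cells in 96-well plates to compound at five concentrations. GI50 = concentration required for 50% inhibition of growth. The concentration for full growth arrest is given as TGI.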

How the values were obtained:
Test in all cases: NCI anticancer screen, dose series, 48 h
HCT-116 colon = test system: HCT-116 colon
KM12 colon = test system: KM12 colon
NCI-H522 lung = test system: NCI-H522 lung
SR leukemia = test system: SR leukemia
SK-OV-3 ovarian = test system: SK-OV-3 ovarian
MDA-MB-231 breast = test system: MDA-MB-231 breast
IGROV1 ovarian = test system: IGROV1 ovarian
U251 CNS = test system: U251 CNS
MDA-MB-435 = test system: MDA-MB-435
HS 578T breast = test system: HS 578T breast
SK-MEL-28 melanoma = test system: SK-MEL-28 melanoma
A549 NSCLC = test system: A549 NSCLC
SF-539 CNS = test system: SF-539 CNS
CCRF-CEM leukemia = test system: CCRF-CEM leukemia
UACC-62 melanoma = test system: UACC-62 melanoma
ACHN renal = test system: ACHN renal
HT29 colon = test system: HT29 colon
HOP-62 NSCLC = test system: HOP-62 NSCLC
OVCAR-3 ovarian = test system: OVCAR-3 ovarian
OVCAR-4 ovarian = test system: OVCAR-4 ovarian
MALME-3M melanoma = test system: MALME-3M melanoma
COLO 205 colon = test system: COLO 205 colon
786-0 renal = test system: 786-0 renal
SNB-75 CNS = test system: SNB-75 CNS
SF-295 CNS = test system: SF-295 CNS
UACC-257 melanoma = test system: UACC-257 melanoma
MOLT-4 leukemia = test system: MOLT-4 leukemia
CAKI-1 renal = test system: CAKI-1 renal
T-47D breast = test system: T-47D breast
DU-145 prostate = test system: DU-145 prostate
NCI/ADR-RES ovarian = test system: NCI/ADR-RES ovarian
SK-MEL-5 melanoma = test system: SK-MEL-5 melanoma
BT-549 breast = test system: BT-549 breast
SN12C renal = test system: SN12C renal
SF-268 CNS = test system: SF-268 CNS
LOX IMVI melanoma = test system: LOX IMVI melanoma
MCF7 breast = test system: MCF7 breast
HCT-15 colon = test system: HCT-15 colon
RPMI-8226 leukemia = test system: RPMI-8226 leukemia
UO-31 renal = test system: UO-31 renal
PC-3 prostate = test system: PC-3 prostate
MDA-MB-468 breast = test system: MDA-MB-468 breast
HOP-92 NSCLC = test system: HOP-92 NSCLC
SW-620 colon = test system: SW-620 colon
EKVX NSCLC = test system: EKVX NSCLC
NCI-H23 lung = test system: NCI-H23 lung
HCC-2998 colon = test system: HCC-2998 colon
HL-60(TB) leukemia = test system: HL-60(TB) leukemia
OVCAR-8 ovarian = test system: OVCAR-8 ovarian
NCI-H460 lung = test system: NCI-H460 lung
SK-MEL-2 melanoma = test system: SK-MEL-2 melanoma
M14 melanoma = test system: M14 melanoma
TK-10 renal = test system: TK-10 renal
SNB-19 CNS = test system: SNB-19 CNS
K-562 leukemia = test system: K-562 leukemia
OVCAR-5 ovarian = test system: OVCAR-5 ovarian
RXF 393 renal = test system: RXF 393 renal
A498 renal = test system: A498 renal
NCI-H226 lung = test system: NCI-H226 lung

## CC(=O)Nc1cccc(-c2nc3cc(-c4ccc(O)cc4)ccc3n2C)c1
HCT-116 colon
  GI50: 15.1 µM
  TGI: 50.9 µM
KM12 colon
  GI50: 12.8 µM
  TGI: 29.7 µM
NCI-H522 lung
  GI50: 5.16 µM
  TGI: 20.7 µM
SR leukemia
  GI50: 12.3 µM
  TGI: > 100 µM
SK-OV-3 ovarian
  GI50: 25.8 µM
  TGI: 96.5 µM
MDA-MB-231 breast
  GI50: 23.7 µM
  TGI: > 100 µM
IGROV1 ovarian
  GI50: 14.4 µM
  TGI: 46.6 µM
U251 CNS
  GI50: 18.3 µM
  TGI: > 100 µM
MDA-MB-435
  GI50: 5.29 µM
  TGI: 19.3 µM
HS 578T breast
  GI50: 19.7 µM
  TGI: > 100 µM
SK-MEL-28 melanoma
  GI50: 11.4 µM
  TGI: 29.6 µM
A549 NSCLC
  GI50: 12.1 µM
  TGI: 60.1 µM
SF-539 CNS
  GI50: 16.1 µM
  TGI: 62.8 µM
CCRF-CEM leukemia
  GI50: 6.06 µM
  TGI: 50 µM
UACC-62 melanoma
  GI50: 7.42 µM
  TGI: 24.9 µM
ACHN renal
  GI50: 5.17 µM
  TGI: 47.7 µM
HT29 colon
  GI50: 24 µM
  TGI: > 100 µM
HOP-62 NSCLC
  GI50: 28.1 µM
  TGI: 65.4 µM
OVCAR-3 ovarian
  GI50: 16.2 µM
  TGI: 63.5 µM
OVCAR-4 ovarian
  GI50: 3.64 µM
  TGI: 27.2 µM
MALME-3M melanoma
  GI50: 5.01 µM
  TGI: 18.6 µM
COLO 205 colon
  GI50: 17.3 µM
  TGI: 34.2 µM
786-0 renal
  GI50: 28.2 µM
  TGI: > 100 µM
SNB-75 CNS
  GI50: 9.43 µM
  TGI: 46.3 µM
SF-295 CNS
  GI50: 10.1 µM
  TGI: 36.2 µM
UACC-257 melanoma
  GI50: 3.76 µM
  TGI: 15.5 µM
MOLT-4 leukemia
  GI50: 4.6 µM
  TGI: 29.5 µM
CAKI-1 renal
  GI50: 11.5 µM
  TGI: 49.2 µM
T-47D breast
  GI50: 2910 nM
  TGI: 11.9 µM
DU-145 prostate
  GI50: 16.6 µM
  TGI: 65.3 µM
NCI/ADR-RES ovarian
  GI50: 21 µM
  TGI: 63.5 µM
SK-MEL-5 melanoma
  GI50: 3.24 µM
  TGI: 11.6 µM
BT-549 breast
  GI50: 5.07 µM
  TGI: 17.7 µM
SN12C renal
  GI50: 17.8 µM
  TGI: > 100 µM
SF-268 CNS
  GI50: 17.7 µM
  TGI: > 100 µM
LOX IMVI melanoma
  GI50: 14.3 µM
  TGI: 31.7 µM
MCF7 breast
  GI50: 4.38 µM
  TGI: 22.2 µM
HCT-15 colon
  GI50: 18.8 µM
  TGI: 68.8 µM
RPMI-8226 leukemia
  GI50: 4.7 µM
  TGI: 23.8 µM
UO-31 renal
  GI50: 10.8 µM
  TGI: 31.8 µM
PC-3 prostate
  GI50: 13.7 µM
  TGI: 65 µM
MDA-MB-468 breast
  GI50: 1830 nM
  TGI: 7.12 µM
HOP-92 NSCLC
  GI50: 11.7 µM
  TGI: > 100 µM
SW-620 colon
  GI50: 16.8 µM
  TGI: 42.9 µM
EKVX NSCLC
  GI50: 13.8 µM
  TGI: 51 µM
NCI-H23 lung
  GI50: 10.6 µM
  TGI: 31 µM
HCC-2998 colon
  GI50: 17.1 µM
  TGI: 74 µM
HL-60(TB) leukemia
  GI50: 10.6 µM
  TGI: 39.7 µM
OVCAR-8 ovarian
  GI50: 10.8 µM
  TGI: 26.9 µM
NCI-H460 lung
  GI50: 11.6 µM
  TGI: 36.4 µM
SK-MEL-2 melanoma
  GI50: 8.73 µM
  TGI: 26.1 µM
M14 melanoma
  GI50: 12.9 µM
  TGI: 26.8 µM
TK-10 renal
  GI50: 19.4 µM
  TGI: 81.5 µM
SNB-19 CNS
  GI50: 27.2 µM
  TGI: > 100 µM
K-562 leukemia
  GI50: 8.91 µM
  TGI: > 100 µM
OVCAR-5 ovarian
  GI50: 25.8 µM
  TGI: 93.5 µM
RXF 393 renal
  GI50: 11.4 µM
  TGI: 39.5 µM
A498 renal
  GI50: 19.2 µM
  TGI: 67.6 µM
NCI-H226 lung
  GI50: 7.76 µM
  TGI: 51.7 µM
